In the experiment the target is T1, human ALK5 (Homo sapiens, UniProt P36897).
T1 construct: human ALK5 (recombinant TGF β1 N-term GST-tagged, 80-end); GST (N); purchased
T1 sequence (P36897 80-503 limits assumed): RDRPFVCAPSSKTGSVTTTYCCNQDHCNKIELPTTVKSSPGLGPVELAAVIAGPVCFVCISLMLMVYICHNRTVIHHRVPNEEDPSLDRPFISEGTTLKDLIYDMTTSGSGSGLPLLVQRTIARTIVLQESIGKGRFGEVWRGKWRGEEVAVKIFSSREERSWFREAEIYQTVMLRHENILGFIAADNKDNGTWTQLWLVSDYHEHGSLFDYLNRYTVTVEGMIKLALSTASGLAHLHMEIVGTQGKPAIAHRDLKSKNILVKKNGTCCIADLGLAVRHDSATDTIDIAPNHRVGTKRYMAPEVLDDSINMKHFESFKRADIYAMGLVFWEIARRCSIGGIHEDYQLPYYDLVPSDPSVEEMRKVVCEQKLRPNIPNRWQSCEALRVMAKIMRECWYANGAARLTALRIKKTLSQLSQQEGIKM
Put plainly: ADP-GLO Kinases assay of ALK5 enzymatic activity. The format is biochemical. Particulars: purified recombinant human ALK5, TGFβ1 peptide substrate, pIC50 converted to pKi by Cheng-Prusoff, high ATP protocol (15 μM) for very potent compounds, 25° C. As to the method: The enzymatic activity of compounds of the present invention was monitored measuring the formation of ADP using the ADP-GLO Kinases assay. Following the incubation of the purified enzyme, a substrate and ATP, the produced ADP was converted into ATP, which in turn was converted into light by Ultra-Glo Luciferase. The luminescent signal positively correlated with ADP amount and kinase activity. […] Compound and ALK5 kinase were mixed and incubated for 15 mins. […] After an incubation of 120 min, the reaction was stopped, and ADP production detected with ADP-Glo kit according to manufacturer's indications. […] After an incubation of 60 min, the kinase reaction was stopped, and ADP production detected with ADP-Glo kit according to manufacturer's indications. All reaction and incubation steps were performed at 25° C. and the assays were performed in 384-well format and validated using a selection of reference compounds tested in 11-point concentration-response curve. […] Results were expressed as pIC50 (negative logarithm of IC50) and subsequently converted to pKi (negative logarithm of […]) using the Cheng-Prusoff equation. The higher the value of pKi, the greater the inhibition of ALK5 activity.
(In ADP-Glo the light output rises with the ADP produced.)
The Ki is a dissociation constant, usually derived from enzyme kinetics or from competition with a known ligand. As to `CN1CCN([C@H]2C[C@@H](C(=O)Nc3cc(Nc4cc(-c5cc(Cl)ccc5F)nnc4SC(C)(C)CO)ccn3)C2)CC1` [Example 94, Cis N-(4-{[6-(5-chloro-2-fluorophenyl)-3-[(1-hydroxy-2-methylpropan-2-yl)sulfanyl]pyridazin-4-yl]amino}pyridin-2-yl)-3-(4-methylpiperazin-1-yl)cyclobutane-1-carboxamide], the Ki was at most 0.1 nM.
Take `COc1nnc(-c2cc(Cl)ccc2F)cc1Nc1ccnc(NC(=O)CCN2CCN(CC(F)(F)F)CC2)c1` [Example 13, N-(4-{[6-(5-chloro-2-fluorophenyl)-3-methoxypyridazin-4-yl]amino}pyridin-2-yl)-3-[4-(2,2,2-trifluoroethyl)piperazin-1-yl]propanamide]: the Ki was at most 0.1 nM.
Turning to `CN1CCN([C@H]2C[C@@H](C(=O)Nc3cc(Nc4cc(-c5cc(Cl)ccc5F)nnc4N(C)CC4(C)CCOC4=O)ccn3)C2)CC1` (single isomer, unassigned) [Example 136, Cis N-(4-{[6-(5-chloro-2-fluorophenyl)-3-{methyl[(3-methyl-2-oxooxolan-3-yl)methyl]amino}pyridazin-4-yl]amino}pyridin-2-yl)-3-(4-methylpiperazin-1-yl)cyclobutane-1-carboxamide], the inhibition constant (Ki) was 0.126 to 0.316 nM.
Regarding `COC(=O)COc1nnc(-c2cc(Cl)ccc2F)cc1Nc1ccnc(NC(=O)CCN2CCN(C)CC2)c1` [Example 15, methyl 2-{[6-(5-chloro-2-fluorophenyl)-4-({2-[3-(4-methylpiperazin-1-yl)propanamido]pyridin-4-yl}amino)pyridazin-3-yl]oxy}acetate], the Ki was 0.126 to 0.316 nM.
Take `COC(=O)NCCN1CCN(CCC(=O)Nc2cc(Nc3cc(-c4cc(Cl)ccc4F)nnc3SC)ccn2)CC1` [Example 21, methyl N-[2-(4-{2-[(4-{[6-(5-chloro-2-fluorophenyl)-3-(methylsulfanyl)pyridazin-4-yl]amino}pyridin-2-yl)carbamoyl]ethyl}piperazin-1-yl)ethyl]carbamate]: the Ki is at most 0.1 nM.
Take `CN1CCN([C@H]2C[C@@H](C(=O)Nc3cc(Nc4cc(-c5cc(Cl)ccc5F)nnc4SCCO)ncn3)C2)CC1` [Example 91, Cis N-(6-{[6-(5-chloro-2-fluorophenyl)-3-[(2-hydroxyethyl)sulfanyl]pyridazin-4-yl]amino}pyrimidin-4-yl)-3-(4-methylpiperazin-1-yl)cyclobutane-1-carboxamide]: the Ki was 0.126 to 0.316 nM.
As to `C[C@@H]1CN([C@H]2C[C@H](C(=O)Nc3cc(Nc4cc(-c5cc(Cl)ccc5F)nnc4N(C)CC4(C)CCOC4=O)ncn3)C2)C[C@H](C)N1` (mixture of isomers) [Example 185, N-(6-{[6-(5-chloro-2-fluorophenyl)-3-{methyl[(3-methyl-2-oxooxolan-3-yl)methyl]amino}pyridazin-4-yl]amino}pyrimidin-4-yl)-3-(3,5-dimethylpiperazin-1-yl)cyclobutane-1-carboxamide], the inhibition constant Ki is at most 0.1 nM.
The result for `CN1CCN(CCC(=O)Nc2cc(Nc3cc(-c4cc(Cl)ccc4F)nnc3OC[C@H]3C[C@@](C)(O)C3)ccn2)CC1` [Example 123, N-(4-{[6-(5-chloro-2-fluorophenyl)-3-[(3-hydroxy-3-methylcyclobutyl)methoxy]pyridazin-4-yl]amino}pyridin-2-yl)-3-(4-methylpiperazin-1-yl)propanamide] reads 0.126 to 0.316 nM.
To `CC(C)OC(=O)C1CN(c2nnc(-c3cc(Cl)ccc3F)cc2Nc2ccnc(NC(=O)CCN3CCN(C)CC3)c2)C1` [Example 100, propan-2-yl 1-[6-(5-chloro-2-fluorophenyl)-4-({2-[3-(4-methylpiperazin-1-yl)propanamido]pyridin-4-yl}amino)pyridazin-3-yl]azetidine-3-carboxylate] belongs 0.126 to 0.316 nM.

For the origin of these results see patent US20250011299A1, “PYRIDAZINYL AMINO DERIVATIVES AS ALK5 INHIBITORS” (CHIESI FARMACEUTICI S.P.A., priority 2021, published 2025).
